# From US20260159536A1, “AKR1C3-ACTIVATED DNA ALKYLATING AGENT, AND MEDICAL APPLICATION THEREOF” (ASCENTAWITS PHARMACEUTICALS, LTD., priority 2021, published 2026)
# Tests used:
# [1] = test system: human lung cancer NCI-H460 cells; assay: In vivo pharmacodynamics, NCI-H460 subcutaneous xenograft model; parameters: species or system BALB/c nude mice; details: Day 31
# Description: BALB/c nude mice were subcutaneously inoculated with human lung cancer NCI-H460 cells to establish a subcutaneous transplantation tumor model of human lung cancer.
# The pharmacodynamic analysis of each group in the NCI-H460 CDX model was performed on Day 31 after tumor cell inoculation, and the results were shown in Table 10.
# [2] = test system: HuPrime model LI6643 human liver cancer; assay: In vivo pharmacodynamics, liver cancer LI6643 PDX model (Compound A, Sorafenib; section 4.8); parameters: species or system BALB/c nude mice
# Description: Experiment Instruction: BALB/c nude mice were subcutaneously inoculated with HuPrime® model LI6643 tumor blocks to establish a subcutaneous transplantation tumor model of human liver cancer. […] The efficacy was evaluated according to the relative tumor inhibition rate TGI (%), and the safety was evaluated according to the change in body weight and the death of the animals.
# [3] = MTD assay and toxicokinetics of Compound A, single 30 min intravenous infusion
# [4] = test system: huH-1; assay: Cytotoxicity on hepatocellular carcinoma cell line huH-1; type: cell-based
# Description: If not otherwise specified, IC50 values were measured by the following experimental methods:
# a) Cells were plated for 24 hours, and then the compounds acted singly. 99 μL of growth medium was supplemented per well, and then 1 μL of 200× compound was added, gently shaken to ensure uniform mixing, and then placed in a 37° C., 5% CO2 incubator.
# b) The cell plate was placed in the incubator for 72 hours.
# b) 100 μL of CTG reagent (CelltiterGlo kit) was added to each well, the plate was placed in a rapid oscillator and shaken for 2 minutes, and then placed at room temperature for 30 minutes away from light.
# The IC50 was calculated using GraphPad Prism 8 software and the IC50 (half inhibitory concentration) of the compounds was obtained using the following non-linear fitting formula: […]
# Using the same experimental methods as described above, Compounds A, B and C were further tested for cytotoxicity against different hepatocellular carcinoma (HCC) cell lines SNU354, SNU886, MHCC97H and huH-1, and the results were shown in Table 2 below: […]
# [5] = 1.25 mg/kg, QDx5, 2 days off, 2 weeks off, QDx5, i.p., Day 35
# [6] = 2.5 mg/kg, QDx5, 2 days off, 2 weeks off, QDx5, i.p., Day 35
# [7] = 5 mg/kg, QDx5, 2 days off, 2 weeks off, QDx5, i.p., Day 35
# [8] = 10 mg/kg, QWx2, 1 week off, QWx2, i.v., Day 35
smiles,measurement,setting,value
O=[N+]([O-])c1ccc(C(OP(=O)(N2CC2)N2CC2)C(F)(F)F)cc1Oc1ccc(-c2ccc(F)cc2)c(F)c1 (racemic) [Compound A],T/C (%),"[1]; 10 mg/kg, QWx3, i.v.",8.94%
same,Tumor volume (x ± S),"[1]; 10 mg/kg, QWx3, i.v., in mm³ (unit assumed)",164.13 ± 34.01
same,Tumor volume,[1]; 15 mg/kg i.v.,125.90 mm^3
same,Relative tumor volume (x ± S),"[1]; 15 mg/kg, QWx3, i.v.",0.92 ± 0.22
same,TGI (%),"[1]; 15 mg/kg, QWx3, i.v.",93.06%
same,Tumor volume,"[2]; 1.25 mg/kg i.p., Day 0",126.02 mm^3
same,Tumor volume,"[2]; 1.25 mg/kg i.p., Day 4",181.97 mm^3
same,Tumor volume,"[2]; 1.25 mg/kg i.p., Day 7",270.85 mm^3
same,Tumor volume,"[2]; 1.25 mg/kg i.p., Day 11",264.04 mm^3
same,Tumor volume,"[2]; 1.25 mg/kg i.p., Day 14",197.40 mm^3
same,Tumor volume,"[2]; 1.25 mg/kg i.p., Day 18",177.65 mm^3
same,Tumor volume,"[2]; 1.25 mg/kg i.p., Day 21",102.13 mm^3
same,Tumor volume,"[2]; 1.25 mg/kg i.p., Day 25",90.41 mm^3
same,Tumor volume,"[2]; 1.25 mg/kg i.p., Day 28",73.75 mm^3
same,Tumor volume,"[2]; 1.25 mg/kg i.p., Day 32",49.39 mm^3
same,Tumor volume,"[2]; 1.25 mg/kg i.p., Day 35",35.61 mm^3
same,Tumor volume,"[2]; 1.25 mg/kg i.p., Day 39",31.79 mm^3
same,Tumor volume,"[2]; 1.25 mg/kg i.p., Day 42",25.59 mm^3
same,Tumor volume,"[2]; 1.25 mg/kg i.p., Day 46",19.34 mm^3
same,Tumor volume,"[2]; 1.25 mg/kg i.p., Day 49",12.51 mm^3
same,Tumor volume,"[2]; 1.25 mg/kg i.p., Day 53",9.04 mm^3
same,Relative tumor volume (x ± S),[2]; [5],0.27 ± 0.14
same,T/C (%),[2]; [5],1.89%
same,TGI (%),[2]; [5],98.11%
same,Tumor volume (x ± S),[2]; [5],35.61 ± 18.63
same,Tumor volume,"[2]; 2.5 mg/kg i.p., Day 0",125.92 mm^3
same,Tumor volume,"[2]; 2.5 mg/kg i.p., Day 4",199.12 mm^3
same,Tumor volume,"[2]; 2.5 mg/kg i.p., Day 7",278.32 mm^3
same,Tumor volume,"[2]; 2.5 mg/kg i.p., Day 11",191.74 mm^3
same,Tumor volume,"[2]; 2.5 mg/kg i.p., Day 14",167.14 mm^3
same,Tumor volume,"[2]; 2.5 mg/kg i.p., Day 18",154.33 mm^3
same,Tumor volume,"[2]; 2.5 mg/kg i.p., Day 21",100.94 mm^3
same,Tumor volume,"[2]; 2.5 mg/kg i.p., Day 25",103.28 mm^3
same,Tumor volume,"[2]; 2.5 mg/kg i.p., Day 28",93.12 mm^3
same,Tumor volume,"[2]; 2.5 mg/kg i.p., Day 32",74.85 mm^3
same,Tumor volume,"[2]; 2.5 mg/kg i.p., Day 35",56.62 mm^3
same,Tumor volume,"[2]; 2.5 mg/kg i.p., Day 39",39.85 mm^3
same,Tumor volume,"[2]; 2.5 mg/kg i.p., Day 42",27.34 mm^3
same,Tumor volume,"[2]; 2.5 mg/kg i.p., Day 46",14.83 mm^3
same,Tumor volume,"[2]; 2.5 mg/kg i.p., Day 49",12.00 mm^3
same,Tumor volume,"[2]; 2.5 mg/kg i.p., Day 53",12.86 mm^3
same,Relative tumor volume (x ± S),[2]; [6],0.45 ± 0.07
same,T/C (%),[2]; [6],3.19%
same,TGI (%),[2]; [6],96.81%
same,Tumor volume (x ± S),[2]; [6],56.62 ± 9.62
same,Tumor volume,"[2]; 5 mg/kg i.p., Day 0",126.93 mm^3
same,Tumor volume,"[2]; 5 mg/kg i.p., Day 4",178.97 mm^3
same,Tumor volume,"[2]; 5 mg/kg i.p., Day 7",214.95 mm^3
same,Tumor volume,"[2]; 5 mg/kg i.p., Day 11",132.13 mm^3
same,Tumor volume,"[2]; 5 mg/kg i.p., Day 14",63.74 mm^3
same,Tumor volume,"[2]; 5 mg/kg i.p., Day 18",60.36 mm^3
same,Tumor volume,"[2]; 5 mg/kg i.p., Day 21",40.93 mm^3
same,Tumor volume,"[2]; 5 mg/kg i.p., Day 25",24.91 mm^3
same,Tumor volume,"[2]; 5 mg/kg i.p., Day 28",21.48 mm^3
same,Tumor volume,"[2]; 5 mg/kg i.p., Day 32",8.71 mm^3
same,Tumor volume,"[2]; 5 mg/kg i.p., Day 35",7.12 mm^3
same,Tumor volume,"[2]; 5 mg/kg i.p., Day 39",6.77 mm^3
same,Tumor volume,"[2]; 5 mg/kg i.p., Day 42",5.57 mm^3
same,Tumor volume,"[2]; 5 mg/kg i.p., Day 46",4.27 mm^3
same,Tumor volume,"[2]; 5 mg/kg i.p., Day 49",4.12 mm^3
same,Tumor volume,"[2]; 5 mg/kg i.p., Day 53",3.81 mm^3
same,Relative tumor volume (x ± S),[2]; [7],0.05 ± 0.05
same,T/C (%),[2]; [7],0.34%
same,TGI (%),[2]; [7],99.66%
same,Tumor volume (x ± S),[2]; [7],7.12 ± 7.12
same,Tumor volume,"[2]; 10 mg/kg i.v., Day 0",126.11 mm^3
same,Tumor volume,"[2]; 10 mg/kg i.v., Day 4",160.85 mm^3
same,Tumor volume,"[2]; 10 mg/kg i.v., Day 7",216.99 mm^3
same,Tumor volume,"[2]; 10 mg/kg i.v., Day 11",94.21 mm^3
same,Tumor volume,"[2]; 10 mg/kg i.v., Day 14",72.94 mm^3
same,Tumor volume,"[2]; 10 mg/kg i.v., Day 18",59.48 mm^3
same,Tumor volume,"[2]; 10 mg/kg i.v., Day 21",25.80 mm^3
same,Tumor volume,"[2]; 10 mg/kg i.v., Day 25",21.28 mm^3
same,Tumor volume,"[2]; 10 mg/kg i.v., Day 28",10.93 mm^3
same,Tumor volume,"[2]; 10 mg/kg i.v., Day 32",7.11 mm^3
same,Tumor volume,"[2]; 10 mg/kg i.v., Day 35",0.00 mm^3
same,Tumor volume,"[2]; 10 mg/kg i.v., Day 39",0.00 mm^3
same,Tumor volume,"[2]; 10 mg/kg i.v., Day 42",0.00 mm^3
same,Tumor volume,"[2]; 10 mg/kg i.v., Day 46",0.00 mm^3
same,Tumor volume,"[2]; 10 mg/kg i.v., Day 49",0.00 mm^3
same,Tumor volume,"[2]; 10 mg/kg i.v., Day 53",0.00 mm^3
same,Relative tumor volume (x ± S),[2]; [8],0 ± 0
same,T/C (%),[2]; [8],0.00%
same,TGI (%),[2]; [8],100.00%
same,Tumor volume (x ± S),[2]; [8],0 ± 0
same,toxic side effects (body weight change),"[2]; 1.25, 2.5, 5, 10 mg/kg",without toxic side effects
same,exposure,"[3]; 1, 3, 6 mg/kg",dose proportional
same,survival,"[3]; 1, 3, 6 mg/kg, until planned dissection",all animals survived
same,MTD at 14 days,"[3]; both, monkey (machins), in vivo, iv",> 6 mg/kg
same,clearance,"[3]; both, monkey (machins), plasma, iv",22.3 to 45.3 mL/min/kg
same,clinical observation,"[3]; females, 3 mg/kg and 6 mg/kg",slight erythema at the site of the administration
same,clinical observation,"[3]; males and females, 6 mg/kg",Soft stools
same,IC50,"[4]; Homo sapiens, HuH-1",306 nM
same,ratio A/B,"[4]; IC50 ratio, huH-1",1.19
same,ratio A/C,"[4]; IC50 ratio, huH-1",1.14
